These results are taken from article PMC10132767, “Bacterial catabolism of membrane phospholipids links marine biogeochemical cycles” (Science Advances, 2023).

This assay addresses T1, EtoX (TRAP transporter, periplasmic ethanolamine binding protein, MED193_10041).
T1 construct: full-length codon optimized, C-terminal His-tag
The experiment in a line: microscale thermophoresis with purified recombinant EtoX. Also on record: species or system Phaeobacter sp. MED193.

Structures are written as SMILES.

In general, Kd refers to the free concentration of one partner at which half of the binding sites on the other are occupied at equilibrium, for simple one-to-one binding. As to `NCCO` [ethanolamine], the Kd came to 7.88 ± 1.88 µM.
